# Experimental data taken from paper PMC8035703, “Effect of Synchronous Versus Sequential Regimens on the Pharmacokinetics and Biodistribution of Regorafenib with Irradiation” (Pharmaceutics, 2021).
# Read-outs that look alike come from different tables or passages of the source.
# How the values were obtained:
# [1] = Organ distribution of regorafenib in rats with or without RT; format: in vivo, Sprague-Dawley rats; settings: for concentration at 4 h: male, Sprague-Dawley, 16 mg/kg, 4 h after oral administration
# Protocol: According to the formula used to translate doses from animal to human, human equivalent dose (HED, mg/kg) = animal dose (mg/kg) × animal km/human km, we calculated the daily dose of regorafenib for rats to be 16 (mg/kg/day). The rats were randomly divided into ten groups with six rats in each group. The concurrent groups treated with regorafenib 1 h after RT, in the same day, to mimic regorafenib concurrent with RT in the daily practice. The sequential groups treated with regorafenib following RT (not in the same day), to mimic RT followed by regorafenib in the daily practice. The one fraction study group included (A) a sham group, regorafenib with RT0 Gy (regorafenib × 1 d); concurrent groups treated with regorafenib 1 h after (B) RT2 Gy with 1 fraction (RT2 Gy × 1 f’x) and (D) RT9 Gy with 1 fraction (RT9 Gy × 1 f’x); and sequential groups treated with regorafenib 24 h after (C) RT2 Gy × 1 f’x and (E) RT9 Gy × 1 f’x. Continued treatment mimicking clinical practice was applied to (A) a sham group, regorafenib (p.o. (per os), q.d. × 3 d) with RT0 Gy (regorafenib × 3 d); concurrent groups treated with regorafenib (p.o., q.d. × 3 d) 1 h after (B) RT2 Gy with 3 fractions (RT2 Gy × 3 f’x) and (D) RT9 Gy with 3 fractions (RT9Gy × 3 f’x); and sequential groups treated with regorafenib 24 h (p.o., q.d. × 3 d) after (C) RT2 Gy × 3 f’x and (E) RT9 Gy × 3 f’x. (Figure 1A,B).
# Organs, including the brain, liver, heart, spleen, lung and kidney, were collected, weighed and stored at −20 °C, until analysis.
# The organ samples were homogenized in 50% aqueous acetonitrile (sample weight: volume = 1:5) and centrifuged at 13,000× g, for 10 min, at 4 °C. The supernatant was stored at −20 °C, until analysis. Additionally, 150 μL of IS solution (diethylstilbestrol) was combined with each organ sample (50 μL) for protein precipitation. Finally, the filtrate (20 μL) was analyzed by HPLC.
# [2] = test system: Huh-7 cells; assay: Cell viability assay (MTT), Huh-7; format: cell-based, human; settings: for IC50 / viability at 5 µM / viability at 10 µM / viability at 20 µM: Homo sapiens; for IC50: MTT after 24 h, read-out: IC50 (estimated concentration at which 50% of cells were killed); for viability at 5 µM: Huh-7, regorafenib 5 μM; for viability at 10 µM: Huh-7, regorafenib 10 μM; for viability at 20 µM: Huh-7, regorafenib 20 μM
# Protocol: Human hepatoma Huh-7 and Hep G2 cell lines kindly provided by Professor Hu (Taipei Veterans General Hospital, Taiwan) were plated into 96-well plates (1 × 10^3 per well) with serum-containing medium (100 μL) for 1 day. Regorafenib at concentrations of 0, 5, 10 and 20 μmol/L (μM) was added to the plates. Then, the study groups were designed: the concurrent group (1 h after irradiation) or sequential group (24 h after irradiation) with sham RT (RT0 Gy), 2 Gy (RT2 Gy) and 9 Gy (RT9 Gy). Additionally, after 24 h, 20 μL of 5 mg/mL MTT was added to the plates and incubated for 3 h. The supernatant was discarded, the precipitate was dissolved in 200 μL DMSO, and the plates were read with a microplate reader at 570 nm and a reference wavelength of 630 nm.
structure (smiles),measurement,setting,value
"CNC(=O)c1cc(Oc2ccc(NC(=O)Nc3ccc(Cl)c(C(F)(F)F)c3)c(F)c2)ccn1 [regorafenib, Regorafenib]",concentration at 4 h,"[1]; rat, liver, oral, rat, RT9 Gy × 1 f'x followed by regorafenib 16 mg/kg × 1 d (sequential), read-out: Concentration in liver",2390 ± 1200 ng/g
same,concentration at 4 h,"[1]; rat, liver, oral, rat, RT9 Gy × 3 f'x followed by regorafenib 16 mg/kg × 3 d (sequential), read-out: Concentration in liver",1160 ± 1120 ng/g
same,concentration at 4 h,"[1]; rat, liver, oral, rat, RT9 Gy × 3 f'x with regorafenib 16 mg/kg × 3 d (concurrent), read-out: Concentration in liver",700 ± 290 ng/g
same,concentration at 4 h,"[1]; rat, liver, po, rat, 16 mg/kg p.o. × 1 d, no RT, read-out: Concentration in liver",1460 ± 340 ng/g
same,concentration at 4 h,"[1]; rat, liver, po, rat, 16 mg/kg p.o. × 3 d, no RT, read-out: Concentration in liver",1450 ± 740 ng/g
same,concentration at 4 h,"[1]; rat, lung, oral, rat, RT2 Gy × 1 f'x with regorafenib 16 mg/kg × 1 d (concurrent), read-out: Concentration in lung",290 ± 190 ng/g
same,concentration at 4 h,"[1]; rat, lung, oral, rat, RT9 Gy × 1 f'x followed by regorafenib 16 mg/kg × 1 d (sequential), read-out: Concentration in lung",1010 ± 700 ng/g
same,concentration at 4 h,"[1]; rat, lung, oral, rat, RT9 Gy × 3 f'x followed by regorafenib 16 mg/kg × 3 d (sequential), read-out: Concentration in lung",370 ± 230 ng/g
same,concentration at 4 h,"[1]; rat, lung, oral, rat, RT9 Gy × 3 f'x with regorafenib 16 mg/kg × 3 d (concurrent), read-out: Concentration in lung",250 ± 180 ng/g
same,concentration at 4 h,"[1]; rat, lung, po, rat, 16 mg/kg p.o. × 1 d, no RT, read-out: Concentration in lung",470 ± 180 ng/g
same,concentration at 4 h,"[1]; rat, lung, po, rat, 16 mg/kg p.o. × 3 d, no RT, read-out: Concentration in lung",1120 ± 250 ng/g
same,concentration at 4 h,"[1]; rat, spleen, oral, rat, RT2 Gy × 1 f'x with regorafenib 16 mg/kg × 1 d (concurrent), read-out: Concentration in spleen",190 ± 70 ng/g
same,concentration at 4 h,"[1]; rat, spleen, oral, rat, RT9 Gy × 1 f'x followed by regorafenib 16 mg/kg × 1 d (sequential), read-out: Concentration in spleen",680 ± 450 ng/g
same,concentration at 4 h,"[1]; rat, spleen, oral, rat, RT9 Gy × 3 f'x followed by regorafenib 16 mg/kg × 3 d (sequential), read-out: Concentration in spleen",230 ± 310 ng/g
same,concentration at 4 h,"[1]; rat, spleen, oral, rat, RT9 Gy × 3 f'x with regorafenib 16 mg/kg × 3 d (concurrent), read-out: Concentration in spleen",100 ± 80 ng/g
same,concentration at 4 h,"[1]; rat, spleen, po, rat, 16 mg/kg p.o. × 1 d, no RT, read-out: Concentration in spleen",260 ± 100 ng/g
same,concentration at 4 h,"[1]; rat, spleen, po, rat, 16 mg/kg p.o. × 3 d, no RT, read-out: Concentration in spleen",380 ± 220 ng/g
same,Concentrations of regorafenib in the brain (in words),"[1]; rat, all regimens",very limited
same,"Biodistribution in heart, liver, lung, spleen and kidneys (in words)",[1]; sequential RT2 Gy × 1 f'x and RT9 Gy × 1 f'x vs control (regorafenib × 1 d),increased the biodistribution of regorafenib
same,Effect on viability of Huh-7 cells (in words),[2]; 0-20 μM,inhibited the viability of Huh-7 cells in a dose-dependent manner
same,IC50,"[2]; Huh-7, 24 h, Huh-7, RT0 Gy, S (regorafenib added 24 h following RT)",12.8 µM
same,IC50,"[2]; Huh-7, 24 h, Huh-7, RT2 Gy, S (regorafenib added 24 h following RT)",12.1 µM
same,IC50,"[2]; Huh-7, 24 h, Huh-7, RT9 Gy, S (regorafenib added 24 h following RT)",15.2 µM
same,IC50,"[2]; Huh-7, Huh-7, RT0 Gy, C (regorafenib added 1 h following RT)",6.56 µM
same,IC50,"[2]; Huh-7, Huh-7, RT2 Gy, C (regorafenib added 1 h following RT)",6.38 µM
same,IC50,"[2]; Huh-7, Huh-7, RT9 Gy, C (regorafenib added 1 h following RT)",6.36 µM
same,viability at 5 µM,"[2]; Huh-7, RT0 Gy, C",60.9 ± 1.8%
same,viability at 5 µM,"[2]; Huh-7, RT0 Gy, S",72.6 ± 1%
same,viability at 5 µM,"[2]; Huh-7, RT2 Gy, C",59.8 ± 5.5%
same,viability at 5 µM,"[2]; Huh-7, RT2 Gy, S",59.5 ± 2.7%
same,viability at 5 µM,"[2]; Huh-7, RT9 Gy, C",62.3 ± 14.1%
same,viability at 5 µM,"[2]; Huh-7, RT9 Gy, S",60.2 ± 5.6%
same,viability at 10 µM,"[2]; Huh-7, RT0 Gy, C",35.1 ± 1.6%
same,viability at 10 µM,"[2]; Huh-7, RT0 Gy, S",55.2 ± 1.2%
same,viability at 10 µM,"[2]; Huh-7, RT2 Gy, C",33.9 ± 2.7%
same,viability at 10 µM,"[2]; Huh-7, RT2 Gy, S",46 ± 2.9%
same,viability at 10 µM,"[2]; Huh-7, RT9 Gy, C",34.3 ± 5.3%
same,viability at 10 µM,"[2]; Huh-7, RT9 Gy, S",47.6 ± 3%
same,viability at 20 µM,"[2]; Huh-7, RT0 Gy, C",15.4 ± 1%
same,viability at 20 µM,"[2]; Huh-7, RT0 Gy, S",41.4 ± 0.4%
same,viability at 20 µM,"[2]; Huh-7, RT2 Gy, C",14.4 ± 0.8%
same,viability at 20 µM,"[2]; Huh-7, RT2 Gy, S",36.3 ± 1.4%
same,viability at 20 µM,"[2]; Huh-7, RT9 Gy, C",14.1 ± 0.7%
same,viability at 20 µM,"[2]; Huh-7, RT9 Gy, S",41.1 ± 1.7%
same,Viability: concurrent regorafenib with RT2 Gy and RT9 Gy vs regorafenib only (in words),[2]; Huh-7 and Hep G2,no synergistic effects
same,Viability with regorafenib following RT2 Gy and RT9 Gy (in words),"[2]; Huh-7 and Hep G2, regorafenib 10 and 20 μM, sequential",higher than the regorafenib-only and concurrent regimen
